Data published in the supplement of paper PMC10307832.

Key:
Experiment in all cases: relative viability (nuclei count vs DMSO), 5 days (fraction); higher = more cells survive
[1] = compound: Cn1cc(-c2cnn3c(N)c(Br)c([C@@H]4CCCNC4)nc23)cn1 + O=C(CCCCCCC(=O)Nc1ccccc1)NO [Vorinostat] (partner 1 µM)
Method in brief: (§1)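 The day after seeding in 1536-well plates, lung cancer cell lines were treated by pin tool with a single drug, or with a fixed anchor-drug dose together with five library-drug doses (not always all listed) in √10 steps. After 5 days, a combined fix-and-stain solution (final 0.05% Triton X-100, 1% formaldehyde, 1 ug/ml Hoechst) was added. Nuclei counted on 4× images gave relative viability as treated counts over vehicle counts, reported as the median of duplicate plates.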

[2] = compound: Cn1cc(-c2cnn3c(N)c(Br)c([C@@H]4CCCNC4)nc23)cn1 + Nc1nc2[nH]cc(CCc3ccc(C(=O)N[C@@H](CCC(=O)O)C(=O)O)cc3)c2c(=O)[nH]1 [Pemetrexed] (partner 0.2 µM)
Method in brief: as §1

[3] = compound: Cn1cc(-c2cnn3c(N)c(Br)c([C@@H]4CCCNC4)nc23)cn1 + CC1(C)CCC(c2ccc(Cl)cc2)=C(CN2CCN(c3ccc(C(=O)NS(=O)(=O)c4ccc(N[C@H](CCN5CCOCC5)CSc5ccccc5)c(S(=O)(=O)C(F)(F)F)c4)cc3)CC2)C1 [Navitoclax] (partner 0.5 µM)
Method in brief: as §1

[4] = compound: Cn1cc(-c2cnn3c(N)c(Br)c([C@@H]4CCCNC4)nc23)cn1 + C[C@]1(O)C[C@@H](c2nc(-c3ccc4ccc(-c5ccccc5)nc4c3)c3c(N)nccn32)C1 [Linsitinib] (partner 1 µM)
Method in brief: as §1

Cell Line	relative viability ([1]; first compound 0.05 µM)	relative viability ([1]; first compound 0.1581 µM)	relative viability ([1]; first compound 0.5 µM)	relative viability ([1]; first compound 1.581 µM)	relative viability ([1]; first compound 5 µM)	relative viability ([2]; first compound 0.05 µM)	relative viability ([2]; first compound 0.1581 µM)	relative viability ([2]; first compound 0.5 µM)	relative viability ([2]; first compound 1.581 µM)	relative viability ([2]; first compound 5 µM)	relative viability ([3]; first compound 0.05 µM)	relative viability ([3]; first compound 0.1581 µM)	relative viability ([3]; first compound 0.5 µM)	relative viability ([3]; first compound 1.581 µM)	relative viability ([3]; first compound 5 µM)	relative viability ([4]; first compound 0.05 µM)	relative viability ([4]; first compound 0.1581 µM)	relative viability ([4]; first compound 0.5 µM)	relative viability ([4]; first compound 1.581 µM)	relative viability ([4]; first compound 5 µM)
NCI-H1755	0.869	0.828	0.653	0.642	0.503	0.398	0.397	0.401	0.373	0.272	1.12	1.03	0.961	0.994	0.969	1.07	1.04	0.978	0.924	0.972
NCI-H1793	0.839	0.717	0.856	0.469	0.181	1.02	0.838	0.79	0.766	0.49	0.43	0.517	0.386	0.383	0.292	0.983	1.18	0.87	0.83	0.513
NCI-H1915	0.511	0.535	0.666	0.574	0.432	0.545	0.435	0.422	0.372	0.358	0.796	0.805	0.736	0.765	0.775	1.1	1.07	1.05	1.16	1.14
NCI-H1944	0.566	0.575	0.463	0.452	0.219	0.688	0.511	0.541	0.337	0.152	0.92	1.01	1.05	1.01	0.858	1.16	1.2	1.12	1.06	0.867
NCI-H1975	0.793	0.715	0.686	0.547	0.548	0.304	0.25	0.249	0.261	0.189	1.21	1.14	1.01	0.908	0.989	1.08	0.918	0.842	0.79	0.805
NCI-H1993	0.803	0.873	0.921	0.713	0.636	0.572	0.595	0.693	0.482	0.575	0.793	0.898	–	0.873	0.831	0.718	0.69	–	0.672	0.739
NCI-H2009	0.82	0.806	0.722	0.818	0.528	1.01	1.02	0.99	0.895	0.683	1.16	1.28	1.1	1.1	1	1.14	1.31	1.22	1.12	1.09
NCI-H2023	0.65	0.349	0.428	0.177	0.097	0.175	0.124	0.115	0.118	0.112	1.06	0.727	0.789	0.304	0.192	0.582	0.452	0.421	0.244	0.135
NCI-H2085	0.801	0.761	0.843	0.725	0.61	0.864	0.925	0.921	0.789	0.7	1.3	1.13	1.18	1.09	0.943	0.85	0.885	0.859	0.824	0.779
NCI-H2087	0.865	0.891	0.341	0.424	0.653	0.671	0.637	0.615	0.582	0.647	1.02	1.14	1.04	1.05	0.948	1.1	1.07	0.998	1.04	0.857
NCI-H2126	0.694	0.788	0.762	0.683	0.68	0.662	0.756	0.753	0.566	0.454	0.915	0.883	0.861	0.804	0.863	0.842	0.723	0.714	0.666	0.686
NCI-H2228	0.636	0.592	0.507	0.345	0.155	0.315	0.33	0.311	0.22	0.155	1.09	1.12	1.13	0.64	0.481	0.975	0.895	0.628	0.586	0.459
NCI-H2347	0.525	0.585	0.511	0.482	0.4	0.408	0.394	0.418	0.502	0.338	0.742	0.818	0.735	0.576	0.678	0.992	1.01	0.986	0.917	0.85
NCI-H2405	0.962	1.01	0.951	0.847	0.668	0.968	1.05	1.05	0.991	0.709	0.815	0.976	0.904	0.867	0.624	0.922	0.875	1.02	0.842	0.785
NCI-H3122	0.999	1.12	0.987	0.88	1.11	0.196	0.169	0.158	0.147	0.164	1.06	1.05	1.05	1.03	1.11	1.02	1.06	0.964	1.08	1.09
PC-3 [JPC-3]	0.656	0.747	–	0.834	0.566	0.698	1.03	–	1.09	0.82	0.75	0.899	0.735	0.832	0.899	0.966	0.989	0.975	0.975	1.03
